Experimental data taken from the METLIN SMRT retention time set (Domingo-Almenara et al. 2019).

Experiment: gradient 5% acetonitrile 3 min, to 50% in 2 min, to 85% in 15 min, held 3 min, 100 µL/min
Details: column: Zorbax Extend-C18 2.1 x 50 mm; eluents: water / acetonitrile, 0.1% formic acid
Method in brief: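 Mixtures of ~100 pure standards were chromatographed on a Zorbax Extend-C18 column (2.1 × 50 mm, 1.8 μm) at 100 μL/min using water and acetonitrile, each with 0.1% formic acid. Detection used a quadrupole time-of-flight mass spectrometer in positive and negative ionization mode, and data collection spanned 3 months. Retention time was obtained from adduct peaks picked computationally and each checked manually.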

Compound | RP-LC retention time
CC1(C)Cc2cccc(OCC(=O)Nc3cccc(-c4ccn[nH]4)c3)c2O1 | 775 s
CNC(=O)C1CCCN(c2nc3ncn(CC(=O)Nc4ccc(C(C)C)cc4)c(=O)c3s2)C1 (stereo not given) | 731 s
Cc1ccc2c(C(=O)NCc3ccccc3C)cc(NC(=O)C(C)C)cc2n1 | 671 s
COc1ccc(CNC(=O)c2ccc(N3CCCS3(=O)=O)cc2)cc1OC | 652 s
Cn1c(C(N)=O)c(N2CCCC2=O)c2cc(F)ccc21 | 669 s
CCN(CC)C(=O)C1Cn2cccc2C(=O)N1C (stereo not given) | 606 s
O=C(Cn1nc(C2CC2)cc1C(=O)N1CCCC1)Nc1ccccc1 | 740 s
Cc1ccc2[nH]cc(CCN3CC(C(=O)NCCc4ccc(F)cc4)CC3=O)c2c1 (stereo not given) | 821 s
Cn1c(=O)n(C)c2cc(S(=O)(=O)c3ccccc3)c(NC(=O)Cc3cccc(F)c3)cc21 | 799 s
CC1(C(=O)NC2CCCC2)Cn2cnc(C(=O)NCc3cccc(F)c3)c2C(=O)N1C1CC1 (stereo not given) | 753 s
O=C(Cn1nc2c3sc(N4CCCCC4)nc3ncn2c1=O)Nc1ccc(Cl)cc1F | 868 s
CCC(C)C(NC(=O)c1cccs1)C(=O)Nc1nc2ccccc2[nH]1 (stereo not given) | 692 s
COc1ccc(-c2nc(NC(=O)CSc3ccccc3)sc2CCC(=O)O)cc1 | 852 s
O=C(NCc1ccccn1)C(=O)Nc1ccc(F)c(Cl)c1 | 632 s
CCCNC(=O)Cn1c(=O)c2cnc(-c3ccccc3)nc2n(CC)c1=O | 862 s
CCCc1noc(-c2ccc(-n3ncc(C(=O)N4CCSCC4)c3C)nc2)n1 | 967 s
COc1ccc(-n2cc(C(=O)O)nn2)cc1OC | 638 s
CCC(=O)N1CCC(c2noc(CO)n2)C1 (stereo not given) | 545 s
Cc1cccc2c(C(N)=O)cc(N3CCN(C)CC3)nc12 | 579 s
CCNC(=O)C1CCCN(c2nc3ncn(CC(=O)Nc4cc(F)ccc4F)c(=O)c3s2)C1 (stereo not given) | 685 s
CCCC(NC(=O)c1cc(C)cc(C)c1)C(=O)Nc1nc2ccccc2[nH]1 (stereo not given) | 751 s
O=C(NCCc1cccs1)C1CCN(c2cc(N3CCOCC3)ncn2)CC1 | 607 s
COc1ccc(C(=O)n2nc(C)cc2C)cc1OC | 788 s

Compound | RP-LC retention time
CCNC(=O)c1sc2nc(-c3ccc(OC)cc3)c(NCCOC)n2c1C | 704 s
COc1ccc(-c2oc3ccc(OC)cc3c2C(=O)O)cc1 | 879 s
O=C(Nc1nc(-c2cccnc2)cs1)C1CN(c2nc3ccccc3s2)C1 | 592 s
CCN(CC)CCCNC(=O)C(C)n1c2ccccc2c2cnn(C)c(=O)c21 (stereo not given) | 559 s
O=C(Cn1cnc2c(sc3nc(-c4ccccc4)ccc32)c1=O)NCc1ccco1 | 887 s
NS(=O)(=O)c1ccc(CNC(=O)c2coc(NC(=O)c3cnccn3)n2)cc1 | 560 s
COc1ccc(NC(=O)N2CCC(n3c(C(F)(F)F)nc4cccnc43)CC2)cc1OC | 768 s
COC(=O)C1=CN(c2ccccc2)c2ccc(F)cc2S1(=O)=O | 817 s
Cc1ccc(-c2nc3n(CC(=O)N4CCCC4)c4c(c(=O)n3n2)CCC4)cc1 | 752 s
CCNC(=O)NCCc1cn(C)c2ncccc12 | 556 s
CNC(=O)CCc1nc2ccccc2n(CC(=O)NCCc2ccc(S(N)(=O)=O)cc2)c1=O | 612 s
COc1ccc(-c2cc3nn(CC(=O)N4CCC(C)CC4)c(=O)n3c(C)n2)cc1 | 894 s
O=C(Cc1csc(SCc2ccncc2)n1)NCc1ccc2c(c1)OCO2 | 568 s
CCCc1ccc(S(=O)(=O)N2C[C@@H](F)C[C@H]2C(=O)N2CCCCC2)cc1 | 937 s
Cn1cnc2c(C(=O)NCC3CCCO3)nn(-c3ccc(Cl)cc3)c2c1=O (stereo not given) | 715 s
O=C(NCCc1ccccc1)c1nc(Cn2c(=O)oc3ccccc32)no1 | 888 s
O=C(Cn1nc2c3ccc(F)cc3ncn2c1=O)NCc1ccc(F)cc1 | 668 s
N#CC1=CN(c2cccc(C(F)(F)F)c2)c2ccccc2S1(=O)=O | 930 s
COCCNC(=O)NC1CCN(C2=NS(=O)(=O)C(c3ccc(C)cc3)=C2C)CC1 | 1140 s
CN1CCN(CCSC2Cc3cc(Cl)ccc3Sc3ccccc32)CC1 (stereo not given) | 761 s
Cc1ccccc1-n1ccn(Cc2nc(-c3cccc(Br)c3)no2)c(=O)c1=O | 931 s
CC1=C(c2ccc(Cl)cc2)S(=O)(=O)N=C1N1CCCN(C(=O)C2CCCO2)CC1 (stereo not given) | 758 s
Cc1nn(CC(=O)NCCCN2CCCC2)c(=O)c2nn(-c3ccccc3)c(C)c12 | 597 s

Compound | RP-LC retention time
CCCC(=O)OCC1OC(n2ccc(N)nc2=O)C(OC(=O)CCC)C1OC(=O)CCC (stereo not given) | 738 s
COc1cn(CC(=O)NCc2ccc(F)cc2)c(CN2CCC(C)CC2)cc1=O | 550 s
COc1ccccc1N1CCN(CCNC(=O)NCc2cccs2)CC1 | 586 s
COc1cccc(S(=O)(=O)N2CCc3nc(-c4ccc(Cl)cc4)ncc3C2)c1 | 1200 s
COCCC(=O)N1CCCN(C2=NS(=O)(=O)C(c3ccc(C)cc3)=C2C)CC1 | 720 s
O=C(Cn1ccc2sccc2c1=O)NCc1ccccc1 | 696 s
CN(Cc1nc(-c2ccc(N3CCSCC3)nc2)no1)C1CCCCC1 | 694 s
CN(CC1CCOC1)C(=O)c1ccc(F)c(F)c1 (stereo not given) | 683 s
Cc1ccc(S(=O)(=O)Cc2cccc(-c3nc(-c4ccc5c(c4)oc(=O)n5C)no3)c2)cc1 | 1030 s
CCOC(=O)N1CCN(/C=C2\Oc3c(ccc(O)c3C)C2=O)CC1 | 637 s
O=C(CCc1ccc2c(c1)CNCCO2)NCC1CC1 | 574 s
CSc1ccc(NC(=O)NC2CCN(c3ccc(F)c(C)c3)C2=O)cc1 (stereo not given) | 873 s
N#Cc1cccc(N2C=C(C(=O)N3CCCCC3)S(=O)(=O)c3ccc(F)cc32)c1 | 827 s
O=C(NCC1CC1)c1ccc2c(c1)nc1n2CCN(C2CCCCC2)C1=O | 706 s
O=C(Cn1nc2c3cc(F)ccc3ncn2c1=O)Nc1ccccc1F | 656 s
Cc1ccc(Nc2c(-c3ccc(Br)cc3)nc3cnccn23)cc1Cl | 1180 s
O=C(CSc1nc(-c2cccc([N+](=O)[O-])c2)cs1)NCc1ccc2c(c1)OCO2 | 865 s
CCN(CC)C(=O)N[C@H]1C[C@@H]2c3cccc4[nH]cc(c34)C[C@H]2N(C)C1 | 679 s
Cc1cc(C)c2c(=O)n(Cc3nc(-c4ccccc4Cl)oc3C)c(=O)n(Cc3ccco3)c2n1 | 1390 s
Cc1csc(-c2cc(S(=O)(=O)NC(C)(C)C)c(C)n2C)n1 | 914 s
CS(=O)(=O)N1CCCc2ccc(NS(=O)(=O)c3ccccc3Cl)cc21 | 806 s
Cc1cccc(NC(=O)C2CCN(c3nnc4cccc(C)n34)CC2)c1 | 706 s
CCn1cc(S(=O)(=O)N2C[C@@H](COC)[C@H](c3ccncc3)C2)cn1 | 625 s

Compound | RP-LC retention time
Cc1cccc(-c2nc(Cn3nnc(-c4nc(-c5cccnc5)no4)c3C)c(C)o2)c1 | 1060 s
CCOC(=O)C1CCN(C(=O)COc2ccc(NC(C)=O)cn2)CC1 | 633 s
CC(C)CNC(=O)c1cn(-c2ccc(S(=O)(=O)N3CCCC(C)C3)cn2)cn1 (stereo not given) | 936 s
CCn1cc(C(=O)NCc2ccc(C)o2)c2cccnc21 | 742 s
CCC(CN1CCOCC1)NC(=O)C1CCN(c2ccc(-c3cccs3)nn2)CC1 (stereo not given) | 571 s
CC1CCCN(C(=O)c2csc(-c3ccc(N4CCCC4)nc3)n2)C1 (stereo not given) | 660 s
Cc1cccc(NC(=O)N2CCc3nc(C)ncc3C2)c1 | 656 s
O=C(CCSc1nnc2ccc3ccccc3n12)Nc1ccc(F)cc1 | 878 s
COc1ccc(C2C(C(=O)N3CCOCC3)=C(C)NC3=C2C(=O)CC(C)(C)C3)c(OC)c1 (stereo not given) | 973 s
COC(=O)CCSCc1ccc(-c2onc(C)c2NC(=O)OC(C)c2ccccc2Cl)cc1 (stereo not given) | 1150 s
Cc1cc(Cl)ccc1-n1ncc2c(N3CCN(CCO)CC3)ncnc21 | 613 s
Cc1nc(CC(=O)NC(C)c2ccccc2)sc1C(=O)NCc1ccccc1 (stereo not given) | 820 s
CCCn1ccc2oc(C)c(C(=O)NCc3cccc(Br)c3)c2c1=O | 1130 s
O=C(NCc1cccc(Cl)c1)C1c2ccccc2CCN1C(=O)C1CC1 (stereo not given) | 838 s
O=C([C@@H]1C[C@H](Oc2ccccc2)CN1C(=O)CCCc1c[nH]c2ccccc12)N1CCCC1 | 865 s
CCC1=NS(=O)(=O)c2cccnc2N1c1ccc(Br)c(C)c1 | 986 s
O=C(Nc1cccc(Cl)c1)c1nnn(-c2ccc(F)cc2)c1-c1cccnc1 | 963 s
CCOC(=O)c1ncn(Cc2ccc3c(c2)OCO3)c1N | 609 s
Cc1cc(N2C(=O)CCS2(=O)=O)cc(C)c1S(=O)(=O)N1CCC(C(N)=O)CC1 | 648 s
Nc1nc(SCc2ccccc2Cl)c2ncn(C3OC(CO)C(O)C3O)c2n1 (stereo not given) | 672 s
O=C(NCc1ccc(F)cc1)C1(CCO)CCN(c2ncccn2)C1 (stereo not given) | 609 s
